From patent US12643882B2, “Inhibitors of human respiratory syncytial virus and metapneumovirus” (priority 2022, dated 2026)
Read-outs that look alike come from different tables or passages of the source.

Columns and labels:
RSV-A2-GFP virus = experiment: microbe, parasite or virus in culture; format: cell-based, Human Respiratory Syncytial Virus
Procedure: To set up the assay, ARF vials were thawed in a 37° C. water bath and a control compound was resuspended in assay media DMEM (Dulbecco's Modified Eagle Medium) containing 2% FBS, 100 U/ml Penicillin-Streptomycin.
GFP sequence was derived from pJTI™ R4 Dest CMV N-EmGFP pA Vector (Invitrogen) and was cloned into the intergenic sequence between wild-type RSV-A2 P and M genes using standard recombineering techniques. Recombinant RSV-A2-GFP was propagated in Hep2 cells (human cells contain HeLa marker chromosomes and were derived via HeLa contamination, ATCC CCL-23) with a Multiplicity of Infection (MOI) of 0.1. Virus was harvested 3 days after infection by collecting all culture material and then freeze-thawing the mixture for 5 min. Working virus stocks were generated by thawing frozen viral cultures in 37° C. water bath, which were centrifuged at 218 g for 15 min at 4° C. 1/10 of 10×SPG (Biological Industries 06-3061-01-5A) were added and then mixed. The supernatant was aliquoted, frozen in liquid nitrogen, and then transferred to a −80° C. freezer for storage. Virus titer was determined by automated plaque assay in HEp-2 cells following methods described previously (Wen Z. et al.; 2019).
Calu-1 cells were purchased from ATCC (Cat #HTB-54) and were expanded in growth media (DMEM containing 10% FBS, 100 U/ml Penicillin-Streptomycin). To make ARF, cell culture media was removed and discarded and the cell layer was briefly rinsed with PBS to remove serum. 2.5 mL of TrypLE Express solution were added and cells incubated until dislodged, to which growth media was added and the cells were resuspended by gentle pipetting. Cells were counted for concentration and viability as determined by ViCell. Cells were centrifuged at RT, 300 g for 5 minutes to pellet cells. The supernatant was gently aspirated and the pellet was flicked to loosen cells. Cells were resuspended in an appropriate volume of freezing medium (DMEM containing 10% DMSO, 10% FBS, 100 U/ml Penicillin-Streptomycin) to achieve a concentration of 5×10^6 cells/mL. 1 mL aliquots of the cell suspension were transferred to freezing vials. The vials were put into an upright container in a −80° C. freezer overnight before transferring vials to liquid nitrogen for storage.
Assay ready freezedown (ARF, generation described separately) Calu-1 cells (ATCC HTB-54) were used. Compound plates were prepared by dispensing compounds dissolved in DMSO into the wells of a 384 well Corning® 3985 plate with an ECHO acoustic dispenser and compounds were tested in 10-point serial 3-fold dilution. […] To set up the assay, ARF vial(s) were thawed in a 37° C. water bath and were then resuspended into assay media (DMEM containing 2% FBS, 100 U/ml Penicillin-Streptomycin). Cells were counted using default parameters on ViCell and diluted to 20,000 cells/mL in assay media. RSV-A2-GFP virus was added to cells at 24,000 pfu/ml (MOI=1.2) and mixed by gentle inversion. 10 μL/well of 100% DMSO was dispensed as CellTiter-Glo (CTG) assay Max_E controls wells. The cells were dispensed at 50 μL/well using Bravo with 50 μL filtered tips into compound plates. Plates were covered with MicroClime lids, loaded with 7.5 mL of assay media to minimize evaporation, and were incubated at 37° C. and 5% CO2 for 96 hrs. Following incubation, distinct, GFP-expressing cells were counted using an Acumen imaging system with appropriate settings. A same-well CTG assay was performed by adding 10 μL/well reconstituted CellTiter-Glo reagent (Promega G7573) and plates were read on PerkinElmer Envision according to manufacturer's instructions. Raw data were loaded and analyzed in ActivityBase. Antiviral IC50 and cytotoxicity CC50 values were determined using a 4 parameter logistic fit based on the Levenberg-Marquardt algorithm. Model: 205-4 Parameter Logistic.

hMPV-GFP virus = experiment: microbe, parasite or virus in culture; format: cell-based, human metapneumovirus
Procedure: GFP expressing rgHMPV #3 p3 was generated in Dr. Buchholz's lab (Biacchesi S. et al., J Virol. 2007 June; 81(11): 6057-6067) and propagated in VERO cells (ATCC Cat #CCL-81) with a Multiplicity of Infection (MOI) of 0.1. Virus was harvested 4 days after infection by collecting cultured material and was freeze-thaw cycled in liquid nitrogen twice. Working virus stocks were generated from thawing frozen samples in 37° C. water bath, which were centrifuged at 218 g for 15 min at 4° C. 1/10 of 10×SPG (Biological Industries 06-3061-01-5A) were added and then mixed. The supernatant was aliquoted, frozen in liquid nitrogen, and then transferred to a −80° C. freezer for storage. Virus titer was determined by performing titration test in 96-well plates and calculate approximate virus titer using GFP event/well data.
Compound plates were prepared by dispensing compounds dissolved in DMSO into wells of a 384 well Corning 3985 polystyrene flat clear bottom optical imaging microplate (202.5 nL/well) using an ECHO acoustic dispenser. Each compound was tested in 10-point serial 3-fold dilution (typical final concentrations: 40,300 nM-2 nM). […] Continuous culture of VERO cells was maintained in complete culture media (OptiMEM supplemented with 2 mM GlutaMAX™ and 100 U/ml Penicillin-Streptomycin). To set up the assay, VERO cells were trypsinized with 0.25% Trypsin-EDTA until cells were dislodged, then cells were re-suspended with 1 mL FBS. Cells were spun down at 300 g for 5 minutes and cells were washed twice with culture media and counted using default parameters on ViCell. Cells were then diluted to 100,000 cells/mL (5,000 cells/50 μL) in complete culture media+TrypLE Select (80 μL/mL). hMPV-GFP virus was added to cells at 125,000 pfu/mL (MOI=1.25) and were mixed by gentle inversion. 10 μL/well of 100% DMSO was dispensed to CellTiter-Glo (CTG) assay Max_E controls wells. Cells were dispensed at 50 μL/well using Bravo and 50 μL filtered tips into compound plates. Plates were covered with MicroClime lids and loaded with 7.5 mL of assay media to minimize evaporation. Plates were lightly shaken for 10 minutes at room temperature and then incubated at 37° C. and 5% CO2 for 48 hrs. Following incubation, distinct GFP-expressing cells were counted using an Acumen imaging system with appropriate settings. A same-well CTG assay was performed by adding 10 μL/well reconstituted CellTiter-Glo reagent (Promega G7573) and plates were read on PerkinElmer Envision according to manufacturer's instructions. Raw data were loaded and analyzed in ActivityBase. Antiviral IC50 and cytotoxicity CC50 values were determined using a 4 parameter logistic fit based on the Levenberg-Marquardt algorithm. Model: 205-4 Parameter Logistic. • References: Wen Z, Citron M, Bett A J, Espeseth A S, Vora K A, Zhang L, DiStefano D J. Development and application of a higher throughput RSV plaque assay by immunofluorescent imaging. J Virol Methods. 2019 January; 263:88-95. doi: 10.1016/j.jviromet.2018.10.022. Epub 2018 Oct. 28. PMD: 30381239. • Biacchesi S, Murphy B R, Collins P L, Buchholz U J. Frequent frameshift and point mutations in the SH gene of human metapneumovirus passaged in vitro. J Virol. 2007 June; 81(11):6057-67. doi: 10.1128/JVL.00128-07. Epub 2007 Mar. 21. PMID: 17376897; PMCID: MC 1900297. Assay Data

[1] = human respiratory syncytial virus, Calu-1, 96 h, read-out: RSV EC50, Calu-1 cells infected with RSV-A2-GFP, 96 hrs, GFP-expressing cells counted
[2] = human metapneumovirus, Vero, 48 h, read-out: hMPV EC50, VERO cells infected with hMPV-GFP, 48 hrs, GFP-expressing cells counted
[3] = Calu-1 cells infected with RSV-A2-GFP, 96 hrs, GFP-expressing cells counted, read-out: RSV EC50
[4] = VERO cells infected with hMPV-GFP, 48 hrs, GFP-expressing cells counted, read-out: hMPV EC50

## Cc1nc(-c2ncccn2)sc1C(=O)N1C[C@@H]2[C@H](C1)[C@H]2Oc1cc(-c2ccc(F)cc2)cc(C(C)(C)N)n1 [Example 115, ((1R,5S,6s)-6-((6-(2-aminopropan-2-yl)-4-(4-fluorophenyl)pyridin-2-yl)oxy)-3-azabicyclo[3.1.0]hexan-3-yl)(4-methyl-2-(pyrimidin-2-yl)thiazol-5-yl)methanone]
RSV-A2-GFP virus; [1]
  EC50: < 0.01 µM
hMPV-GFP virus; [2]
  EC50: > 0.1 µM

## Cn1nc(-c2ncccn2)cc1C(=O)N1C[C@@H]2[C@H](C1)[C@H]2Oc1cc(C(C)(C)N)cc(-c2ccc(F)cc2)n1 [Example 52, ((1R,5S,6s)-6-((4-(2-aminopropan-2-yl)-6-(4-fluorophenyl)pyridin-2-yl)oxy)-3-azabicyclo[3.1.0]hexan-3-yl)(1-methyl-3-(pyrimidin-2-yl)-1H-pyrazol-5-yl)methanone]
RSV-A2-GFP virus; [1]
  EC50: < 0.01 µM
hMPV-GFP virus; [2]
  EC50: > 0.1 µM

## Cc1nc(-c2ncccn2)sc1C(=O)N1C[C@@H]2[C@H](C1)[C@H]2Oc1cc(C(C)(C)N)cc(C2=CCCCC2)n1 [Example 45, ((1R,5S,6s)-6-((4-(2-aminopropan-2-yl)-6-(cyclohex-1-en-1-yl)pyridin-2-yl)oxy)-3-azabicyclo[3.1.0]hexan-3-yl)(4-methyl-2-(pyrimidin-2-yl)thiazol-5-yl)methanone]
RSV-A2-GFP virus; [3]
  EC50: < 0.01 µM
hMPV-GFP virus; [4]
  EC50: > 0.1 µM

## CC(C)(N)c1cc(O[C@H]2[C@@H]3CN(C(=O)c4cn(-c5ncccn5)nc4C(F)(F)F)C[C@@H]32)nc(-c2ccc(F)cc2)c1 [Example 67, ((1R,5S,6s)-6-((4-(2-aminopropan-2-yl)-6-(4-fluorophenyl)pyridin-2-yl)oxy)-3-azabicyclo[3.1.0]hexan-3-yl)(1-(pyrimidin-2-yl)-3-(trifluoromethyl)-1H-pyrazol-4-yl)methanone]
RSV-A2-GFP virus; [3]
  EC50: < 0.01 µM
hMPV-GFP virus; [4]
  EC50: > 0.1 µM

## Cc1nc(-c2ncccn2)sc1C(=O)N1C[C@@H]2[C@H](C1)[C@H]2Oc1cc(C(C)(C)N)cc(-c2ccccc2)n1 [Example 20, ((1R,5S,6s)-6-((4-(2-aminopropan-2-yl)-6-phenylpyridin-2-yl)oxy)-3-azabicyclo[3.1.0]hexan-3-yl)(4-methyl-2-(pyrimidin-2-yl)thiazol-5-yl)methanone]
RSV-A2-GFP virus; [3]
  EC50: < 0.01 µM
hMPV-GFP virus; [4]
  EC50: > 0.1 µM

## Cn1nc(-c2ncccn2)cc1C(=O)N1C[C@H]2[C@H](Oc3cc(C(C)(C)N)cc(-c4ccc(F)cc4)n3)[C@@]2(C)C1 (single isomer, unassigned; enantiomer 2) [Example 104B]
RSV-A2-GFP virus; read-out: RSV EC50, Calu-1 cells infected with RSV-A2-GFP, 96 hrs, GFP-expressing cells counted
  EC50: < 0.01 µM
hMPV-GFP virus; read-out: hMPV EC50, VERO cells infected with hMPV-GFP, 48 hrs, GFP-expressing cells counted
  EC50: > 0.1 µM

## Cc1nn(-c2ncccn2)cc1C(=O)N1C[C@@H]2[C@H](C1)[C@H]2Oc1cc(C(C)(C)N)cc(-n2ncc3c(Cl)cccc32)n1 [Example 94, ((1R,5S,6s)-6-((4-(2-aminopropan-2-yl)-6-(4-chloro-1H-indazol-1-yl)pyridin-2-yl)oxy)-3-azabicyclo[3.1.0]hexan-3-yl)(3-methyl-1-(pyrimidin-2-yl)-1H-pyrazol-4-yl)methanone]
RSV-A2-GFP virus; [1]
  EC50: < 0.01 µM
hMPV-GFP virus; [2]
  EC50: > 0.1 µM

## Cc1nc(-c2ncccn2)sc1C(=O)N1C[C@@H]2[C@H](C1)[C@H]2Oc1cc(C(C)(C)N)cc(N2CCC(C(F)(F)F)CC2)n1 [Example 125, ((1R,5S,6s)-6-((4-(2-aminopropan-2-yl)-6-(4-(trifluoromethyl)piperidin-1-yl)pyridin-2-yl)oxy)-3-azabicyclo[3.1.0]hexan-3-yl)(4-methyl-2-(pyrimidin-2-yl)thiazol-5-yl)methanone]
RSV-A2-GFP virus; [3]
  EC50: < 0.01 µM
hMPV-GFP virus; [4]
  EC50: > 0.1 µM

## Cn1nc(-c2ncccn2)cc1C(=O)N1C[C@@H]2[C@H](C1)[C@H]2Oc1cc(C(C)(C)N)cc(-c2ccc3c(c2)CC3(F)F)n1 [Example 98, ((1R,5S,6s)-6-((4-(2-aminopropan-2-yl)-6-(7,7-difluorobicyclo[4.2.0]octa-1(6),2,4-trien-3-yl)pyridin-2-yl)oxy)-3-azabicyclo[3.1.0]hexan-3-yl)(1-methyl-3-(pyrimidin-2-yl)-1H-pyrazol-5-yl)methanone]
RSV-A2-GFP virus; [3]
  EC50: < 0.01 µM
hMPV-GFP virus; [4]
  EC50: > 0.1 µM

## Cc1nn(-c2ncccn2)cc1C(=O)N1C[C@@H]2[C@H](C1)[C@H]2Oc1cc(C(N)C(C)C)cc(-c2ccc(F)cc2)n1 (stereo partly drawn) [Example 118A, ent-((1R,5S,6s)-6-((4-(1-amino-2-methylpropyl)-6-(4-fluorophenyl)pyridin-2-yl)oxy)-3-azabicyclo[3.1.0]hexan-3-yl)(3-methyl-1-(pyrimidin-2-yl)-1H-pyrazol-4-yl)methanone]
RSV-A2-GFP virus; [3]
  EC50: < 0.01 µM
hMPV-GFP virus; [4]
  EC50: > 0.1 µM

## Cc1nc(-c2ncccn2)sc1C(=O)N1C[C@@H]2[C@H](C1)[C@H]2Oc1cc(C(C)(C)N)cc(-c2ccc(C(F)(F)F)nc2)n1 [Example 28, ((1R,5S,6s)-6-((4-(2-aminopropan-2-yl)-6′-(trifluoromethyl)-[2,3′-bipyridin]-6-yl)oxy)-3-azabicyclo[3.1.0]hexan-3-yl)(4-methyl-2-(pyrimidin-2-yl)thiazol-5-yl)methanone]
RSV-A2-GFP virus; [3]
  EC50: < 0.01 µM
hMPV-GFP virus; [4]
  EC50: 0.01 to 0.1 µM
